One data set in a line: water-octanol partition coefficient (log P), OECD Test Guideline 107.
Conditions: not given
Type of data set: physicochemical. As for the experimental part:
The water-octanol partition coefficient, or log P value, is a value defined by OECD Test Guideline 107. […] The constituents shown in Table 1 were as below, and the log P values in Table 1 were determined in accordance with OECD Test Guideline 107. • (1) First solvents
Take `CCCCOCCOCCO` [butyl diglycol]: the “log P (water-octanol partition coefficient)” value (shortened to “log P”) was 0.56.

The data set is the same for the next values; noted with them: OECD Test Guideline 107.
Consider `CCC(O)CO` (stereo not shown) [1,2-butanediol], for which the logP is -0.34.

With `COCCOCCOCCOCCO` [Methyl tetraglycol, reference compound], the “log P” value was −1.87.

Regarding dipropylene glycol monomethyl ether, the “log P” value is −0.46.

The data set is the same for the next values; noted with them: octanol/water; OECD Test Guideline 107.
Take `CC(C)(C)C(O)CO` (stereo not shown) [3,3-dimethylbutane-1,2-diol]: the logP is -0.11.

The molecule `CC(O)(CO)COc1ccccc1` (stereo not shown) [2-methyl-3-phenoxy-1,2-propanediol] returned a logP of 1.1.

The molecule `OCC(CO)(CO)COc1ccccc1` [2-hydroxymethyl-2-phenoxymethyl-1,3-propanediol] displayed a logP of 1.69.

In turn, `Cc1cccc(OCC(O)CO)c1` (stereo not shown) [3-(3-methylphenoxy)-1,2-propanediol] had a logP of 1.21.

Molecule `OCC(O)COCc1ccccc1` (stereo not shown) [3-benzyloxy-1,2-propanediol] had a logP of 0.88.

`CCCCCC(O)CO` (stereo not shown) [1,2-heptanediol] came in with a logP of 1.

For the molecule `CCCCC(O)CO` (stereo not shown) [1,2-hexanediol], the logP came to 0.7.

`COc1ccc(COCC(O)CO)cc1` (stereo not shown) [3-(4-methoxybenzyloxy)-1,2-propanediol]: the logP turned out to be 0.8.

In turn, `OCC(O)COc1ccccc1` (stereo not shown) [phenyl glyceryl ether] yielded a logP of 0.75.

The record behind these values is patent US20170009093A1, “LIQUID COMPOSITION, PIGMENT DISPERSION LIQUID, AND INK JET RECORDING AQUEOUS INK COMPOSITION” (Seiko Epson Corporation, priority 2015, published 2017).
